Test results reported in the supplement of paper PMC11061612.

What was measured:
AZD2811 = compound: CCN(CCO)CCCOc1ccc2c(Nc3cc(CC(=O)Nc4cccc(F)c4)[nH]n3)ncnc2c1 [AZD2811]; details: max 1 µM
How it was run: (§1)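 In 1536-well plates, cancer cell lines in 7.5 μl DMEM/F12 or RPMI with 10% FBS spent 24 hours at 37°C and 5% CO2 and were then dosed for 72 hours with final DMSO typically 0.2%. Viability was read by CellTiter-Glo 2.0 luminescence and scaled between blank-well and DMSO-well means. The single-agent IC50 was fitted from dose responses using a logistic curve in a non-linear mixed effects model, and that logistic curve had two parameters.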

SN-38 = compound: CCc1c2c(nc3ccc(O)cc13)-c1cc3c(c(=O)n1C2)COC(=O)[C@]3(O)CC [SN-38]; details: max 0.3 µM
How it was run: as §1

AZD5991 = compound: Cc1c2c(nn1C)CSCc1cc(n(C)n1)CSc1cc(c3ccccc3c1)OCCCc1c(C(=O)O)n(C)c3c-2c(Cl)ccc13 [AZD5991]; details: max 1 µM
How it was run: as §1

Gefitinib = compound: COc1cc2ncnc(Nc3ccc(F)c(Cl)c3)c2cc1OCCCN1CCOCC1 [Gefitinib]; details: max 10 µM
How it was run: as §1

Lapatinib = compound: CS(=O)(=O)CCNCc1ccc(-c2ccc3ncnc(Nc4ccc(OCc5cccc(F)c5)c(Cl)c4)c3c2)o1 [Lapatinib]; details: max 10 µM
How it was run: as §1

AZD5153 = compound: COc1nnc2ccc(N3CCC(c4ccc(OCCN5CCN(C)C(=O)[C@H]5C)cc4)CC3)nn12 [AZD5153]; details: max 1 µM
How it was run: as §1

Carboplatin = compound: C1CC(C1)(C(=O)[O-])C(=O)[O-].N.N.[Pt+2] [Carboplatin]; details: max 10 µM
How it was run: as §1

AZD4320 = compound: CN(CC[C@H](CSC1=CC=CC=C1)NC2=C(C=C(C=C2)S(=O)(=O)NC(=O)C3=CC=C(C=C3)N4CCC(CC4)[C@H](C5=CC=CC=C5C6=CC=C(C=C6)Cl)O)S(=O)(=O)C(F)(F)F)CCO [AZD4320]; details: max 1 µM
How it was run: as §1

[1] = compound: O=C(Nc1ccc2[nH]nc(-c3ccncc3)c2c1)[C@@H]1CCN(CC(=O)N2CCN(c3ccc(-c4ncccn4)cc3)CC2)C1; details: max 5 µM
How it was run: as §1

Etoposide = compound: COc1cc([C@@H]2c3cc4c(cc3[C@@H](O[C@@H]3O[C@@H]5CO[C@@H](C)O[C@H]5[C@H](O)[C@H]3O)[C@H]3COC(=O)[C@H]23)OCO4)cc(OC)c1O [Etoposide]; details: max 10 µM
How it was run: as §1

5-Fluorouracil = compound: O=c1[nH]cc(F)c(=O)[nH]1 [5-Fluorouracil]; details: max 20 µM
How it was run: as §1

Prexasertib = compound: COc1cccc(OCCCN)c1-c1cc(Nc2cnc(C#N)cn2)n[nH]1 [Prexasertib]; details: max 1 µM
How it was run: as §1

Crizotinib = compound: C[C@@H](Oc1cc(-c2cnn(C3CCNCC3)c2)cnc1N)c1c(Cl)ccc(F)c1Cl [Crizotinib]; details: max 10 µM
How it was run: as §1

Paclitaxel = compound: CC(=O)O[C@H]1C(=O)[C@@]2(C)[C@H]([C@H](OC(=O)c3ccccc3)[C@]3(O)C[C@H](OC(=O)[C@H](O)[C@@H](NC(=O)c4ccccc4)c4ccccc4)C(C)=C1C3(C)C)[C@]1(OC(C)=O)CO[C@@H]1C[C@@H]2O [Paclitaxel]; details: max 3 µM
How it was run: as §1

Gemcitabine = compound: Nc1ccn([C@@H]2O[C@H](CO)[C@@H](O)C2(F)F)c(=O)n1 [Gemcitabine]; details: max 0.3 µM
How it was run: as §1

AZD5363 = compound: C1CN(CCC1(C(=O)N[C@@H](CCO)C2=CC=C(C=C2)Cl)N)C3=NC=NC4=C3C=CN4 [AZD5363]; details: max 10 µM
How it was run: as §1

AZD7648 = compound: Cc1cc2ncnn2cc1Nc1ncc2c(n1)n(C1CCOCC1)c(=O)n2C [AZD7648]; details: max 10 µM
How it was run: as §1

Alisertib = compound: COc1cc(Nc2ncc3c(n2)-c2ccc(Cl)cc2C(c2c(F)cccc2OC)=NC3)ccc1C(=O)O [Alisertib]; details: max 10 µM
How it was run: as §1

Selumetinib = compound: Cn1cnc2c(F)c(Nc3ccc(Br)cc3Cl)c(C(=O)NOCCO)cc21 [Selumetinib]; details: max 10 µM
How it was run: as §1

AZD1390 = compound: CC(C)n1c(=O)n(C)c2cnc3cc(F)c(-c4ccc(OCCCN5CCCCC5)nc4)cc3c21 [AZD1390]; details: max 0.3 µM
How it was run: as §1

Savolitinib = compound: C[C@@H](c1ccc2nccn2c1)n1nnc2ncc(-c3cnn(C)c3)nc21 [Savolitinib]; details: max 1 µM
How it was run: as §1

AZD1775 = compound: C=CCn1c(=O)c2cnc(Nc3ccc(N4CCN(C)CC4)cc3)nc2n1-c1cccc(C(C)(C)O)n1 [AZD1775]; details: max 3 µM
How it was run: as §1

Doxorubicin = compound: COc1cccc2c1C(=O)c1c(O)c3c(c(O)c1C2=O)C[C@@](O)(C(=O)CO)C[C@@H]3O[C@H]1C[C@H](N)[C@H](O)[C@H](C)O1 [Doxorubicin]; details: max 1 µM
How it was run: as §1

AZD0156 = compound: CN(C)CCCOc1ccc(-c2ccc3ncc4c(c3c2)n(C2CCOCC2)c(=O)n4C)cn1 [AZD0156]; details: max 3 µM
How it was run: as §1

AZD8186 = compound: C[C@@H](Nc1cc(F)cc(F)c1)c1cc(C(=O)N(C)C)cc2c(=O)cc(N3CCOCC3)oc12 [AZD8186]; details: max 10 µM
How it was run: as §1

Trametinib = compound: CC(=O)Nc1cccc(-n2c(=O)n(C3CC3)c(=O)c3c(Nc4ccc(I)cc4F)n(C)c(=O)c(C)c32)c1 [Trametinib]; details: max 1 µM
How it was run: as §1

SG3199 = compound: CC1=CN2[C@@H](C1)C=NC3=CC(=C(C=C3C2=O)OC)OCCCCCOC4=C(C=C5C(=C4)N=C[C@@H]6CC(=CN6C5=O)C)OC [SG3199]; details: max 0.001 µM
How it was run: as §1

Palbociclib = compound: CC(=O)c1c(C)c2cnc(Nc3ccc(N4CCNCC4)cn3)nc2n(C2CCCC2)c1=O [Palbociclib]; details: max 10 µM
How it was run: as §1

Venetoclax = compound: CC1(C)CCC(CN2CCN(c3ccc(C(=O)NS(=O)(=O)c4ccc(NCC5CCOCC5)c([N+](=O)[O-])c4)c(Oc4cnc5[nH]ccc5c4)c3)CC2)=C(c2ccc(Cl)cc2)C1 [Venetoclax]; details: max 1 µM
How it was run: as §1

Dasatinib = compound: CC1=C(C(=CC=C1)Cl)NC(=O)C2=CN=C(S2)NC3=CC(=NC(=N3)C)N4CCN(CC4)CCO [Dasatinib]; details: max 2 µM
How it was run: as §1

Olaparib = compound: O=C(c1cc(Cc2n[nH]c(=O)c3ccccc23)ccc1F)N1CCN(C(=O)C2CC2)CC1 [Olaparib]; details: max 10 µM
How it was run: as §1

Taselisib = compound: Cc1nc(-c2cn3c(n2)-c2ccc(-c4cnn(C(C)(C)C(N)=O)c4)cc2OCC3)n(C(C)C)n1 [Taselisib]; details: max 10 µM
How it was run: as §1

SRA737 = compound: N#Cc1cnc(Nc2cc(NC[C@H]3CNCCO3)c(C(F)(F)F)cn2)cn1 [SRA737]; details: max 10 µM
How it was run: as §1

AZD6738 = compound: C[C@@H]1COCCN1C2=NC(=NC(=C2)C3(CC3)[S@](=N)(=O)C)C4=C5C=CNC5=NC=C4 [AZD6738]; details: max 10 µM
How it was run: as §1

MK-2206 = compound: NC1(c2ccc(-c3nc4ccn5c(=O)[nH]nc5c4cc3-c3ccccc3)cc2)CCC1 [MK-2206]; details: max 10 µM
How it was run: as §1

Cell Line | IC50, cell viability 72 h (AZD2811) | IC50, cell viability 72 h (SN-38) | IC50, cell viability 72 h (AZD5991) | IC50, cell viability 72 h (Gefitinib) | IC50, cell viability 72 h (Lapatinib) | IC50, cell viability 72 h (AZD5153) | IC50, cell viability 72 h (Carboplatin) | IC50, cell viability 72 h (AZD4320) | IC50, cell viability 72 h [1] | IC50, cell viability 72 h (Etoposide) | IC50, cell viability 72 h (5-Fluorouracil) | IC50, cell viability 72 h (Prexasertib) | IC50, cell viability 72 h (Crizotinib) | IC50, cell viability 72 h (Paclitaxel) | IC50, cell viability 72 h (Gemcitabine) | IC50, cell viability 72 h (AZD5363) | IC50, cell viability 72 h (AZD7648) | IC50, cell viability 72 h (Alisertib) | IC50, cell viability 72 h (Selumetinib) | IC50, cell viability 72 h (AZD1390) | IC50, cell viability 72 h (Savolitinib) | IC50, cell viability 72 h (AZD1775) | IC50, cell viability 72 h (Doxorubicin) | IC50, cell viability 72 h (AZD0156) | IC50, cell viability 72 h (AZD8186) | IC50, cell viability 72 h (Trametinib) | IC50, cell viability 72 h (SG3199) | IC50, cell viability 72 h (Palbociclib) | IC50, cell viability 72 h (Venetoclax) | IC50, cell viability 72 h (Dasatinib) | IC50, cell viability 72 h (Olaparib) | IC50, cell viability 72 h (Taselisib) | IC50, cell viability 72 h (SRA737) | IC50, cell viability 72 h (AZD6738) | IC50, cell viability 72 h (MK-2206)
WIL2-NS (Non-Cancerous) | > 1000 nM | 4.65 nM | > 1000 nM | > 10000 nM | > 10000 nM | 44.8 nM | > 10000 nM | > 1000 nM | > 5000 nM | 375 nM | > 20000 nM | 6.04 nM | > 10000 nM | 10.7 nM | 7.8 nM | 2380 nM | > 10000 nM | 927 nM | > 10000 nM | > 300 nM | > 1000 nM | 231 nM | 105 nM | > 3000 nM | > 10000 nM | > 1000 nM | > 1 nM | 629 nM | > 1000 nM | 1350 nM | > 10000 nM | 6950 nM | 1730 nM | 1260 nM | 6090 nM
WM-115 (Melanoma) | > 1000 nM | > 300 nM | > 1000 nM | > 10000 nM | > 10000 nM | > 1000 nM | > 10000 nM | > 1000 nM | > 5000 nM | > 10000 nM | > 20000 nM | 486 nM | > 10000 nM | 387 nM | > 300 nM | > 10000 nM | > 10000 nM | > 10000 nM | > 10000 nM | > 300 nM | > 1000 nM | > 3000 nM | 633 nM | > 3000 nM | 3410 nM | 182 nM | > 1 nM | > 10000 nM | > 1000 nM | > 2000 nM | > 10000 nM | 7270 nM | > 10000 nM | > 10000 nM | > 10000 nM
